In paper PMC10112881 (Cell reports, 2023):
Where a name gives a salt, the structure may show the parent alone.

Assays:
[1] = tested on: D1/5 subtypes; assay: G protein dissociation BRET assay; type: cell-based, human
[2] = tested on: head-twitch response; assay: Head-twitch response
[3] = tested on: 33 human aminergic GPCRs; assay: Pan-aminergic GPCR functional screen; type: cell-based; conditions: of 33 aminergic GPCR targets tested
[4] = target: 5-HT4 (Homo sapiens, UniProt Q13639); assay: G protein dissociation BRET assay; type: cell-based
5-HT4, sequence (Q13639 whole entry): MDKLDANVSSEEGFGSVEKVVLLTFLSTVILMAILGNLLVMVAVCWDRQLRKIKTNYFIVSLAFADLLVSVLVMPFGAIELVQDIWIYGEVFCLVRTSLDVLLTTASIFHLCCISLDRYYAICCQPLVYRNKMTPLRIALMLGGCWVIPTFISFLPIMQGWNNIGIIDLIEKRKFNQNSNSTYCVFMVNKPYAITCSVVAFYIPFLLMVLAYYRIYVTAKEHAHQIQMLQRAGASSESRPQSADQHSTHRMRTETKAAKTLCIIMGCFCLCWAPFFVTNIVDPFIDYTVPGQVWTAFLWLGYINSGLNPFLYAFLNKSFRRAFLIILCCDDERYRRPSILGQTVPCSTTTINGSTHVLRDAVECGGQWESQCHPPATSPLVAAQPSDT

[5] = target: D3 (Homo sapiens, UniProt P35462); assay: G protein dissociation BRET assay; type: cell-based; conditions: relative to dopamine
D3, sequence (P35462 whole entry): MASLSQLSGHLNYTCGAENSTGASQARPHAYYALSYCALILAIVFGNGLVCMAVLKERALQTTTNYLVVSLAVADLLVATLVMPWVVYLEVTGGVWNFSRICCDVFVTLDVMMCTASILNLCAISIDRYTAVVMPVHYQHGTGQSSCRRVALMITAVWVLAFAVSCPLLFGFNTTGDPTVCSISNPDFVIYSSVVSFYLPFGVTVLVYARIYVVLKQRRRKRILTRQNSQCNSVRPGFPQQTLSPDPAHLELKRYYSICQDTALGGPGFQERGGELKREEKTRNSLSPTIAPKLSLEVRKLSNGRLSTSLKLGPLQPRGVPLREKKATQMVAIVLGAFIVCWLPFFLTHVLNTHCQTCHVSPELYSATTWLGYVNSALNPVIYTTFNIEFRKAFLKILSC

[6] = tested on: rest of the histamine and muscarinic GPCRs; assay: G protein dissociation BRET assay; type: cell-based, human
[7] = tested on: rat cortical neurons; assay: Spinogenesis in cultured cortical neurons; type: cell-based; conditions: 10 μM, 3 h at DIV18, read 24 h after onset
[8] = tested on: rat cortical neurons; assay: Dendritogenesis; type: cell-based
[9] = Open field test; type: in vivo, C57BL/6J mice; conditions: 0.125 mg/kg alone or with 2-Br-LSD 1 mg/kg
[10] = Forced swim test; type: in vivo, C57BL/6J mice; conditions: 0.125 mg/kg before 2-Br-LSD 1 mg/kg, females and males
[11] = tested on: HTR induced by DOI; assay: Blockade of DOI-induced head-twitch response; conditions: 0.025 or 0.25 mg/kg, DOI 1 mg/kg
[12] = tested on: head-twitch response; conditions: cited from earlier work
[13] = tested on: HTR induced by DOI; assay: Tolerance to DOI-induced HTR after repeated treatment; conditions: 10 mg/kg/day IP 7 days, DOI 1 mg/kg challenge 24 h later

Q: Which “agonism at D1/5 subtypes” value [1] does the source give for `CCN(CC)C(=O)[C@@H]1C=C2c3cccc4[nH]cc(c34)C[C@H]2N(C)C1.CCN(CC)C(=O)[C@@H]1C=C2c3cccc4[nH]cc(c34)C[C@H]2N(C)C1.O=C(O)C(O)C(O)C(=O)O` [LSD, (+)-lysergic acid diethylamide (2:1) (+)-tartrate, reference compound] here?
A: demonstrates agonist activity

Q: And the “induction of the HTR” value ([2]; 0.1 mg/kg IP, male C57BL/6J mice, 60 min)?
A: significant increase in HTR counts

Q: And the “number of aminergic GPCR targets with agonist activity” value [3]?
A: 20

Q: What about the “activity at 5-HT4” value [4] of the same molecule?
A: lack potent agonist or antagonist activity

Q: What about the EMAX [5] of the same molecule?
A: 75%

Q: What about the “agonism or antagonism at the rest of the histamine and muscarinic GPCRs” value [6] of the same molecule?
A: neither 2-Br-LSD nor LSD possessed weak agonism or antagonism

Q: With `CNC1(c2ccccc2Cl)CCCCC1=O` (stereo not drawn) [ketamine, Ketamine hydrochloride, reference compound] as the molecule, how does the spine density [7] read?
A: spine density increased

Q: For `COc1cccc([C@H](O)C2CCN(CCc3ccc(F)cc3)CC2)c1OC` [Vol, volinanserin, reference compound], which “dendritic arbor complexity, administered alone” value ([8]; 0.1–1 μM) is on record?
A: did not change any parameter linked to dendritic arbor complexity

Q: What about the “effect of pre-treatment on 2-Br-LSD-induced total dendrite length” value ([8]; before 2-Br-LSD 1 μM) of the same molecule?
A: blocked the increase in total dendrite length

Q: And the “locomotion in the OF” value [9]?
A: Neither Vol nor a combination of Vol and 2-Br-LSD affected locomotion

Q: And the “effect of pre-treatment on 2-Br-LSD decrease in immobility” value [10]?
A: blocked the decrease in immobility

Q: For `CCCN1CCC[C@@H]2Cc3n[nH]cc3C[C@H]21` [(–)-quinpirole, (–)-quinpirole hydrochloride, reference compound], which “reduction of the response to DOI” value [11] is on record?
A: ~ 20%

Q: What about the “effect on the HTR induced by LSD” value [12] of the same molecule?
A: does not alter the HTR

Q: For `COc1cc(CC(C)N)c(OC)cc1I.Cl` (racemic) [DOI, (±)-2,5-Dimethoxy-4-iodoamphetamine hydrochloride, reference compound], which “tolerance on HTR after repeated treatment” value [13] is on record?
A: significant degree of tachyphylaxis

Q: Which “effect of pre-treatment on the response to 2-Br-LSD in the HTR assay” value ([2]; 1 mg/kg WAY-100,635, then 2-Br-LSD 3 mg/kg) does the source give for `COc1ccccc1N1CCN(CCN(C(=O)C2CCCCC2)c2ccccn2)CC1.O=C(O)/C=C\C(=O)O` [WAY-100,635, N-[2-[4-(2-Methoxyphenyl)-1-piperazinyl]ethyl]-N-(2-pyridinyl)cyclohexanecarboxamide maleate, reference compound] here?
A: had no effect
